Source: publication PMC7558399, “In Vitro Selective Growth-Inhibitory Activities of Phytochemicals, Synthetic Phytochemical Analogs, and Antibiotics against Diarrheagenic/Probiotic Bacteria and Cancer/Normal Intestinal Cells” (Pharmaceuticals, 2020)
≈ marks a conversion by molar mass, not a printed value. Read-outs that look alike come from different tables or passages of the source.

Key:
Format in all cases: cell-based
[1] = test system: Caco-2 (ATCC HTB 37) intestinal cancer cells; assay: MTT cytotoxicity assay, Caco-2; conditions: Homo sapiens, Caco-2, MTT, 72 h; for IC50: read-out: IC50 ± SD; for IC80: read-out: IC80 ± SD (80% inhibitory concentration of proliferation)
[2] = test system: Listeria monocytogenes (ATCC 7644); assay: Broth microdilution MIC, L. monocytogenes
[3] = test system: Yersinia enterocolitica (ATCC 9610); assay: Broth microdilution MIC, Y. enterocolitica; conditions: read-out: MIC
[4] = test system: Clostridium difficile (DSMZ 12056); assay: microbe, parasite or virus in culture; conditions: Clostridioides difficile, DSMZ12056
[5] = test system: Bifidobacterium longum ssp. longum (DSMZ 20219); assay: Broth microdilution MIC, B. longum ssp. longum; conditions: DSMZ20219; Bifidobacterium longum ssp. longum; growth inhibited by ≥80%; read-out: MIC
[6] = test system: Bacteroides fragilis (ATCC 25285); assay: Broth microdilution MIC, B. fragilis
[7] = test system: Lactobacillus casei (DSMZ 20011); assay: Broth microdilution MIC, L. casei; conditions: Lacticaseibacillus casei, DSMZ20011, Lactobacillus casei, read-out: MIC
[8] = test system: Vibrio parahaemolyticus (ATCC 17802); assay: Broth microdilution MIC, V. parahaemolyticus; conditions: ATCC17802, growth inhibited by ≥80%, read-out: MIC
[9] = test system: E. coli 0175:H7 (NCTC 12900); assay: microbe, parasite or virus in culture; conditions: Escherichia coli, NCTC12900
[10] = test system: probiotic bacteria (9 strains); assay: Broth microdilution MIC, probiotic bacteria as a group (mean or range over strains); conditions: read-out: x¯ -PB ± SD: mean MIC for probiotic bacteria
[11] = test system: diarrheagenic bacteria (12 strains); assay: organism not typed
[12] = test system: Shigella flexneri (ATCC 12022); assay: microbe, parasite or virus in culture; conditions: ATCC12022
[13] = test system: Bifidobacterium animalis spp. lactis (DSMZ 10140); assay: Broth microdilution MIC, B. animalis spp. lactis; conditions: DSMZ10140
[14] = test system: Escherichia coli (ATCC 25922); assay: Broth microdilution MIC, E. coli
[15] = test system: Bacillus cereus (ATCC 14579); assay: Broth microdilution MIC, B. cereus; conditions: median/mode, read-out: MIC
[16] = test system: Lactobacillus reuteri (CCM 3625); assay: Broth microdilution MIC, L. reuteri; conditions: Limosilactobacillus reuteri, CCM3625
[17] = test system: FHs 74 Int (ATCC CCL 241) intestinal normal cells; assay: MTT cytotoxicity assay, FHs 74 Int; conditions: FHs 74 Int (intestinal normal cells), MTT, 72 h; for IC50 / IC80: FHs74Int; for IC50: read-out: IC50 ± SD; for IC80: read-out: IC80 ± SD (80% inhibitory concentration of proliferation)
[18] = test system: Clostridium perfringens (DSMZ 11778); assay: microbe, parasite or virus in culture; conditions: DSMZ11778
[19] = test system: Bifidobacterium breve (ATCC 15700); assay: Broth microdilution MIC, B. breve; conditions: ATCC15700, growth inhibited by ≥80%, read-out: MIC
[20] = test system: Enterococcus faecalis (ATCC 29212); assay: Broth microdilution MIC, E. faecalis
[21] = test system: HT29 (ATCC HTB 38) intestinal cancer cells; assay: MTT cytotoxicity assay, HT29; conditions: Homo sapiens, HT-29, HT29, MTT, 72 h; for IC50: read-out: IC50 ± SD; for IC80: read-out: IC80 ± SD (80% inhibitory concentration of proliferation)
[22] = test system: intestinal cancer cells (HT29 and Caco-2); assay: MTT cytotoxicity assay, mean for intestinal cancer cells; conditions: for IC50: mean of HT29 and Caco-2, >512 replaced with 1024, read-out: x¯ -CC ± SD: mean IC50 for intestinal cancer cells; for IC80: read-out: x¯ -CC ± SD: mean IC80 for intestinal cancer cells
[23] = test system: Lactobacillus rhamnosus (CCM 7091); assay: Broth microdilution MIC, L. rhamnosus; conditions: Lacticaseibacillus rhamnosus, CCM7091
[24] = test system: Bifidobacterium bifidum (ATCC 29521); assay: Broth microdilution MIC, B. bifidum
[25] = test system: Bifidobacterium adolescentis (DSMZ 20087); assay: Broth microdilution MIC, B. adolescentis
[26] = test system: Salmonella enterica ssp. enterica serovar Enteritidis (ATCC 13076); assay: Broth microdilution MIC, Salmonella Enteritidis
[27] = test system: S. enterica ssp. enterica serovar Typhimurium (ATCC 14028); assay: Broth microdilution MIC, Salmonella Typhimurium
[28] = ATCC7644, growth inhibited by ≥80%, read-out: MIC
[29] = ATCC9610, growth inhibited by ≥80%
[30] = ATCC25285, growth inhibited by ≥80%, read-out: MIC
[31] = mean of 9 strains, >512 replaced with 1024
[32] = mean of 12 strains, >512 replaced with 1024, read-out: x¯ -DB ± SD: mean MIC for diarrheagenic bacteria
[33] = Bifidobacterium animalis spp. lactis, growth inhibited by ≥80%, read-out: MIC
[34] = ATCC25922, growth inhibited by ≥80%, read-out: MIC
[35] = Lactobacillus reuteri, growth inhibited by ≥80%, read-out: MIC
[36] = ATCC29212, growth inhibited by ≥80%, read-out: MIC
[37] = Lactobacillus rhamnosus, growth inhibited by ≥80%, read-out: MIC
[38] = ATCC29521, growth inhibited by ≥80%, read-out: MIC
[39] = DSMZ20087, growth inhibited by ≥80%, read-out: MIC

Compound | IC50 [1] [µg/mL] | IC80 [1] [µg/mL] | MIC [2, 28] [µg/mL] | MIC [3, 29] [µg/mL] | MIC [5] [µg/mL] | MIC [6, 30] [µg/mL] | MIC ([7]; growth inhibited by ≥80%) [µg/mL] | MIC [8] [µg/mL] | MIC [9] [µg/mL] | MIC [10, 31] [µg/mL] | MIC [11, 32] [µg/mL] | MIC [12] [µg/mL] | MIC [13, 33] [µg/mL] | MIC [14, 34] [µg/mL] | MIC ([15]; ATCC14579, […]) [µg/mL] | MIC [16, 35] [µg/mL] | IC50 [17] [µg/mL] | IC80 [17] [µg/mL] | MIC [18] [µg/mL] | MIC [19] [µg/mL] | further results
Cc1ncc([N+](=O)[O-])n1CCO [MA, metronidazole] | > 512 | > 512 | 512 (≈ 2990 µM) | > 512 | 8 (≈ 46.7 µM) | 0.5 (≈ 2.92 µM) | > 512 | > 512 | > 512 | 385 ± 458 (≈ 2250 µM) | 651 ± 459 (≈ 3810 µM) | > 512 | 32 (≈ 187 µM) | 0.062 (≈ 0.362 µM) | 128 (≈ 748 µM) | 256 (≈ 1500 µM) | > 512 | > 512 | 8 (≈ 46.7 µM) | 32 (≈ 187 µM) | MIC ([4]; Clostridium difficile, […], read-out: MIC): 0.5 µg/mL (≈ 2.92 µM); MIC ([11]; both clostridial species tested, read-out: MICs): 0.5 to 8 µg/mL (≈ 2.92 to 46.7 µM); IC50 ± SD [17]: - (Not active (MIC/IC50/80 > 512 μg/mL, the value 1024 μg/mL was used for average calculation)); IC80 ± SD (80% inhibitory concentration of proliferation) [17]: - (Not active (MIC/IC50/80 > 512 μg/mL, the value 1024 μg/mL was used for average calculation)); MIC [20, 36]: > 512 µg/mL; IC50 [21]: > 512 µg/mL; IC80 [21]: > 512 µg/mL; IC50 [22]: > 512 µg/mL; IC80 [22]: > 512 µg/mL; MIC [23, 37]: > 512 µg/mL; MIC [24, 38]: > 512 µg/mL; MIC [25, 39]: 64 µg/mL (≈ 374 µM)
O=C(OC[C@H]1O[C@@H](OC(=O)c2cc(O)c(O)c(OC(=O)c3cc(O)c(O)c(O)c3)c2)[C@H](OC(=O)c2cc(O)c(O)c(OC(=O)c3cc(O)c(O)c(O)c3)c2)[C@@H](OC(=O)c2cc(O)c(O)c(OC(=O)c3cc(O)c(O)c(O)c3)c2)[C@@H]1OC(=O)c1cc(O)c(O)c(OC(=O)c2cc(O)c(O)c(O)c2)c1)c1cc(O)c(O)c(OC(=O)c2cc(O)c(O)c(O)c2)c1 [TA, tannic acid] | – | – | – | – | 128 (≈ 75.2 µM) | – | – | 128 (≈ 75.2 µM) | 512 (≈ 301 µM) | – | 779 ± 307 (≈ 458 µM) | > 512 | – | – | 512 (≈ 301 µM) | – | – | – | 512 (≈ 301 µM) | 256 (≈ 150 µM) | MIC ([2]; ATCC7644): > 512 µg/mL; MIC ([3]; ATCC9610, […]): 512 µg/mL (≈ 301 µM); MIC [4]: > 512 µg/mL; MIC [26]: > 512 µg/mL; MIC ([6]; ATCC25285): > 512 µg/mL; MIC ([7]; […]): 512 µg/mL (≈ 301 µM); MIC [10]: 725 ± 352 µg/mL (≈ 426 µM); MIC ([13]; Bifidobacterium animalis): > 512 µg/mL; MIC ([14]; ATCC25922): > 512 µg/mL; MIC [27]: > 512 µg/mL; MIC [16]: 512 µg/mL (≈ 301 µM); MIC ([20]; ATCC29212): > 512 µg/mL; MIC [23]: > 512 µg/mL; MIC ([24]; ATCC29521): > 512 µg/mL; MIC ([25]; DSMZ20087): > 512 µg/mL
CN(C)[C@@H]1C(O)=C(C(N)=O)C(=O)[C@@]2(O)C(O)=C3C(=O)c4c(O)cccc4[C@@](C)(O)[C@H]3C[C@@H]12 [TC, tetracycline] | 70.4 ± 15 (≈ 158 µM) | > 512 | 2 (≈ 4.5 µM) | 2 (≈ 4.5 µM) | 2 (≈ 4.5 µM) | 0.5 (≈ 1.13 µM) | 8 (≈ 18 µM) | 1 (≈ 2.25 µM) | 4 (≈ 9 µM) | 19.8 ± 19 (≈ 44.6 µM) | – | 2 (≈ 4.5 µM) | 32 (≈ 72 µM) | 1 (≈ 2.25 µM) | – | 32 (≈ 72 µM) | 14.7 ± 2.3 (≈ 33.1 µM) | 108 ± 5 (≈ 243 µM) | 32 (≈ 72 µM) | 16 (≈ 36 µM) | MIC ([26]; Salmonella Enteritidis, growth inhibited by ≥80%, read-out: MIC): 4 µg/mL (≈ 9 µM); MIC ([11]; read-out: MICs): 1 to 4 µg/mL (≈ 2.25 to 9 µM); MIC ([11]; read-out: x¯ -DB ± SD: mean MIC for diarrheagenic bacteria): 4.8 ± 8 µg/mL (≈ 10.8 µM); MIC ([27]; Salmonella Typhimurium, growth inhibited by ≥80%, read-out: MIC): 4 µg/mL (≈ 9 µM); MIC ([15]; ATCC14579, growth inhibited by ≥80%): 0.5 µg/mL (≈ 1.13 µM); MIC [20, 36]: 4 µg/mL (≈ 9 µM); IC50 [21]: 393 ± 20 µg/mL (≈ 884 µM); IC80 [21]: > 512 µg/mL; IC50 [22]: 232 ± 161 µg/mL (≈ 521 µM); IC80 [22]: > 512 µg/mL; MIC [23, 37]: 8 µg/mL (≈ 18 µM); MIC [24, 38]: 16 µg/mL (≈ 36 µM); MIC [25, 39]: 64 µg/mL (≈ 144 µM)
